# Laboratory results: PMC8945229, “Development and Biological Characterization of a Novel Selective TrkA Agonist with Neuroprotective Properties against Amyloid Toxicity” (Biomedicines, 2022)
# How the values were obtained:
# PC12 cells = assay: CellTox assay, serum deprivation-induced cell death; format: cell-based
# Protocol: CellTox assay (G8742, Promega Corporation, Maddison, WI, USA) was used to assess survival of PC12 cells under serum deprivation conditions. PC12 cells were plated in 96-well plates, starved of serum for 4 h and subsequently treated with NGF (100 ng/mL) or ENT-A013 (500 nM) in the presence or absence of TrkA inhibitor GW441756 (20 μM, G-190, Alomone labs, Jerusalem, Israel) for 24 h. CellTox assay reagents and Hoescht (1:10,000, H3570, Invitrogen, Waltham, MA, USA) were added to each well for 30′ and cells were then imaged with a Zeiss AXIO Vert A1 fluorescent microscope (Zeiss, Jena, Germany). CellTox positive cells were normalized to total number of cells for each image.
# Akt = Akt phosphorylation in PC12 cells (Western blot); format: cell-based; design: unit not given here; details: 500 nM, 30′
# Protocol: For immunoprecipitation experiments PC12 or HEK293T, cells were used when at 70–80% confluent. Cells were starved of serum for 4 h and subsequently treated with 100 ng/mL NGF or 500 nM of compound ENT-A013 for 30′. Cells were then lysed in Pierce™ IP Lysis Buffer (87788, Thermo Fischer Scientific, Waltham, MA, USA) containing proteases (539138, Calbiochem, Darmstadt, Germany) and phosphatase inhibitors (524629, Calbiochem, Darmstadt, Germany). Lysates were then immunoprecipitated overnight at 4 °C with TrkA antibody (1:100, 06-574, Sigma-Aldrich, St. Louis, MO, USA) (Table S1) or p75^NTR antibody (1:100, ab6172, Abcam plc., Cambridge, UK) followed by 4 h incubation with protein G-plus agarose beads (sc-2002, Santa Cruz Biotechnology, Inc., Dallas, TX, USA). Beads were then collected, washed 3X with lysis buffer, resuspended in SDS loading buffer and subjected to Western blot against phosphorylated Tyrosine (1:1000, BAM1676, R&D Systems, Inc., Minneapolis, MN, USA) or Traf6 antibody (1:2000, ab33915, Abcam, plc., Cambridge, UK). […]
# hippocampal brain slices = assay: LTP electrophysiology in hippocampal brain slices treated with oligomeric Aβ; design: species or system mouse; details: oligomeric Aβ 5 μM, 500 nM, 3–5 h, vs slices treated only with Aβ
# Excerpt: C57BL/6J mice were euthanized under halothane anesthesia and the brain was quickly dissected and placed in ice-cold oxygenated artificial cerebrospinal fluid (aCSF; 95% O2/5% CO2) containing (in mM): 125 NaCl, 3.5 KCl, 26 NaHCO3, 1 MgCl2 and 10 glucose (pH = 7.4, 315 mOsm/L). The brain was then placed onto the stage of a vibratome (Leica, VT1000S, Leica Biosystems GmbH, Wetzlar, Germany) and transverse slices containing the hippocampus were obtained. […] Field excitatory post-synaptic potentials (fEPSP) were amplified using an EXT-02F amplifier ([…]), digitized with ITC-18 (HEKA Elektronik GmbH, Reutlingern, Germany) and recorded in a computer running Windows 10 with IgorPro software (Wavemetrics Inc., Portland, OR, USA). […] The fEPSP amplitude was calculated from the minimum voltage value of the synaptic response (3–5 ms following stimulation) compared to the baseline voltage prior to stimulation. fEPSP recordings were acquired every 90″ for 10′ before TBS and continued for approximately 50′ following LTP induction. Recorded traces were analyzed using a custom-made script in the IgorPro software (Wavemetrics Inc., Portland, OR, USA).
compound,measurement,setting,value
"CC12CCC(O)CC1=CCC1C2CCC2(C)C1CCC21CC1C=CBr [ENT-A013, (2′R,3S,17S)-2′-(2-Bromovinyl)-5-Androstene-17,1′-Cyclopropan-3-ol]",IC50,"PC12 cells; Rattus norvegicus, PC-12, serum deprivation, CellTox, read-out: IC50 (anti-apoptotic dose–response)",167 nM
same,CellTox positive cells normalized to total number of cells,"PC12 cells; serum deprivation, 24 h, 500 nM",0.11 ± 0.01
same,Akt phosphorylation,Akt,3.8 ± 1.15
same,synaptic potentiation after TBS (in words),hippocampal brain slices,significantly increased synaptic potentiation
